Experimental data as given in the kinase profiling compilation of Christmann-Franck et al. (2016).

Columns and labels:
Assay in all cases: KINOMEscan competition binding
Settings in all cases: compound 10.0 µM
[1] = biological target: PRKAA1 (human) (UniProt Q13131)
[2] = biological target: LATS1 (human) (UniProt O95835)
[3] = biological target: SRC (human) (UniProt P12931)
[4] = biological target: CSNK1A1L (human) (UniProt Q8N752)
[5] = biological target: MAP3K10 (human) (UniProt Q02779)
[6] = test system: KIT (human), P10721 [V559D]
[7] = biological target: SGK110 (human) (UniProt P0C264)
[8] = biological target: STK11 (human) (UniProt Q15831)
Sequence of STK11 (human) (Q15831 whole entry, looked up): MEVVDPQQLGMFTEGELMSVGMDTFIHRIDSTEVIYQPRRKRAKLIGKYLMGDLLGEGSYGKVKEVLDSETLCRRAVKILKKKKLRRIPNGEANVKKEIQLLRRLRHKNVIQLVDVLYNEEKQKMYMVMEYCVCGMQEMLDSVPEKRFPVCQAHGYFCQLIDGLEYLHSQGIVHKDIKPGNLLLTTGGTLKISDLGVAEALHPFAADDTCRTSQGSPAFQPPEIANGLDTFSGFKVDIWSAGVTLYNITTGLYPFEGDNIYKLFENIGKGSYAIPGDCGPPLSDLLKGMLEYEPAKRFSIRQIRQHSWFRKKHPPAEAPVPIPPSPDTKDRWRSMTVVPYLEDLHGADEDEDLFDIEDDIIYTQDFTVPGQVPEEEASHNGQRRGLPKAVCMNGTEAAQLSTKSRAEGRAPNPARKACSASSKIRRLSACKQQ

[9] = biological target: STK4 (human) (UniProt Q13043)
[10] = biological target: MKNK2 (human) (UniProt Q9HBH9)
[11] = biological target: CDC42BPA (human) (UniProt Q5VT25)
[12] = biological target: MYO3B (human) (UniProt Q8WXR4)
Sequence of MYO3B (human) (Q8WXR4 whole entry, looked up): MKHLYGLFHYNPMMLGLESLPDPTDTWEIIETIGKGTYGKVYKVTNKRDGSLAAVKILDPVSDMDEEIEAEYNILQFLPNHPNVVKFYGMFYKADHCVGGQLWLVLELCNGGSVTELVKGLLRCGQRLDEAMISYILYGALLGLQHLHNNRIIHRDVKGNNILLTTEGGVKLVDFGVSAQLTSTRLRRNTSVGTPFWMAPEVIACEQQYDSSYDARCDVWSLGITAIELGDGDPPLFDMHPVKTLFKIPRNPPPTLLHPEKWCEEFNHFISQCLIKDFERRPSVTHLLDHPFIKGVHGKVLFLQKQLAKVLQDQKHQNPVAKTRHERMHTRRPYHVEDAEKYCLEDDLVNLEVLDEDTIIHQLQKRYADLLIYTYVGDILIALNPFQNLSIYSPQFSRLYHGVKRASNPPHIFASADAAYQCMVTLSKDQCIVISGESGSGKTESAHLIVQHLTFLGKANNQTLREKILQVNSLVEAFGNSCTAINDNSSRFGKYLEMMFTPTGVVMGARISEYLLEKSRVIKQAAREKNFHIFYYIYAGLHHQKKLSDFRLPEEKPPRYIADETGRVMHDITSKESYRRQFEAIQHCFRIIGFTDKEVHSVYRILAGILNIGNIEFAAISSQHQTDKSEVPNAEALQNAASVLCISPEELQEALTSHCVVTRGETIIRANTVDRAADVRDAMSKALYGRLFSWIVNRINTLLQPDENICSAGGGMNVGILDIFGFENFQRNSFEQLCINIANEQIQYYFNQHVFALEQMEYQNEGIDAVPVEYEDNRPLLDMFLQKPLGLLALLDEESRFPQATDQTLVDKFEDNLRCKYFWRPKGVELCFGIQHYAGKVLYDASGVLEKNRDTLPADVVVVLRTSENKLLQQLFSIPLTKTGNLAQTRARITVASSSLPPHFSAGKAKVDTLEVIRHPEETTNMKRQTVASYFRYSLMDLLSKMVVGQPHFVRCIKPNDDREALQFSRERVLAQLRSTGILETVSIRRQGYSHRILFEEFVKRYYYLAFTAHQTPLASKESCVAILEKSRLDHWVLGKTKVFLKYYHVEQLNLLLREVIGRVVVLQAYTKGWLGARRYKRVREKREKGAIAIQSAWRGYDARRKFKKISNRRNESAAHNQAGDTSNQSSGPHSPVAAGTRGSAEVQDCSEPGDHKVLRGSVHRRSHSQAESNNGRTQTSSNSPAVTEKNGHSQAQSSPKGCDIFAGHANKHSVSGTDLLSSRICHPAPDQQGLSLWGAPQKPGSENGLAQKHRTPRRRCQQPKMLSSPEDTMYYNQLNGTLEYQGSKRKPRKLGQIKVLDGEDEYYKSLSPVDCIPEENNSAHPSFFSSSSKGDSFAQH

[13] = biological target: NTRK2 (human) (UniProt Q16620)
[14] = biological target: MYLK2 (human) (UniProt Q9H1R3)
[15] = biological target: ABL2 (human) (UniProt P42684)
[16] = biological target: MAPK8 (human) (UniProt P45983)
[17] = biological target: MAP2K6 (human) (UniProt P52564)
[18] = biological target: RIOK2 (human) (UniProt Q9BVS4)
[19] = biological target: SRPK2 (human) (UniProt P78362)
Sequence of SRPK2 (human) (P78362 whole entry, looked up): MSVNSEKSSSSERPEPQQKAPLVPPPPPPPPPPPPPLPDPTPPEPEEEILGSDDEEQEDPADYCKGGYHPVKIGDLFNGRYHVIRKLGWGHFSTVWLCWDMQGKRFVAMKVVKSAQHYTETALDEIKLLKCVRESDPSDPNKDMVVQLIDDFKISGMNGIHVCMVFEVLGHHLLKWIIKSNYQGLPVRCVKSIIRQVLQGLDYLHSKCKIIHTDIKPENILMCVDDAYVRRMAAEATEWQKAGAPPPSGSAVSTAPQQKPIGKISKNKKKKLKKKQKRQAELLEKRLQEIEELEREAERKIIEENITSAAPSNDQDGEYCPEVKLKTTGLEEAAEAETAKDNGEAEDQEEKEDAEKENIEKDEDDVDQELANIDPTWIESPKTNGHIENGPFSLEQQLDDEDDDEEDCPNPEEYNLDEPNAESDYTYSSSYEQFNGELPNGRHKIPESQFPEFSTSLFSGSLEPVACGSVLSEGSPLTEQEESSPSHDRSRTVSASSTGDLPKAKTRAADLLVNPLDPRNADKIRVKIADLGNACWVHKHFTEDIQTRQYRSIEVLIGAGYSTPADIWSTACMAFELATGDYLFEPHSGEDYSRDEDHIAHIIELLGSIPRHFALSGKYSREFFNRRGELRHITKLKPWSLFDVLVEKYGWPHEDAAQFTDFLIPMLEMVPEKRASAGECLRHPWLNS

[20] = biological target: PIM3 (human) (UniProt Q86V86)
[21] = biological target: CDK16 (human) (UniProt Q00536)
[22] = biological target: PHKG1 (human) (UniProt Q16816)
[23] = biological target: LIMK2 (human) (UniProt P53671)
[24] = biological target: PIK3CD (human) (UniProt O00329)
[25] = biological target: PLK3 (human) (UniProt Q9H4B4)
[26] = biological target: PIK3C2B (human) (UniProt O00750)
[27] = biological target: MAPK9 (human) (UniProt P45984)
[28] = biological target: TAOK3 (human) (UniProt Q9H2K8)
[29] = biological target: MAP3K9 (human) (UniProt P80192)
[30] = biological target: NEK7 (human) (UniProt Q8TDX7)
[31] = biological target: INSRR (human) (UniProt P14616)
[32] = biological target: STK17A (human) (UniProt Q9UEE5)
[33] = test system: ABL1 (human), P00519 [M351T]
[34] = biological target: DCLK1 (human) (UniProt O15075)
[35] = biological target: STK17B (human) (UniProt O94768)
[36] = biological target: ANKK1 (human) (UniProt Q8NFD2)
Sequence of ANKK1 (human) (Q8NFD2 whole entry, looked up): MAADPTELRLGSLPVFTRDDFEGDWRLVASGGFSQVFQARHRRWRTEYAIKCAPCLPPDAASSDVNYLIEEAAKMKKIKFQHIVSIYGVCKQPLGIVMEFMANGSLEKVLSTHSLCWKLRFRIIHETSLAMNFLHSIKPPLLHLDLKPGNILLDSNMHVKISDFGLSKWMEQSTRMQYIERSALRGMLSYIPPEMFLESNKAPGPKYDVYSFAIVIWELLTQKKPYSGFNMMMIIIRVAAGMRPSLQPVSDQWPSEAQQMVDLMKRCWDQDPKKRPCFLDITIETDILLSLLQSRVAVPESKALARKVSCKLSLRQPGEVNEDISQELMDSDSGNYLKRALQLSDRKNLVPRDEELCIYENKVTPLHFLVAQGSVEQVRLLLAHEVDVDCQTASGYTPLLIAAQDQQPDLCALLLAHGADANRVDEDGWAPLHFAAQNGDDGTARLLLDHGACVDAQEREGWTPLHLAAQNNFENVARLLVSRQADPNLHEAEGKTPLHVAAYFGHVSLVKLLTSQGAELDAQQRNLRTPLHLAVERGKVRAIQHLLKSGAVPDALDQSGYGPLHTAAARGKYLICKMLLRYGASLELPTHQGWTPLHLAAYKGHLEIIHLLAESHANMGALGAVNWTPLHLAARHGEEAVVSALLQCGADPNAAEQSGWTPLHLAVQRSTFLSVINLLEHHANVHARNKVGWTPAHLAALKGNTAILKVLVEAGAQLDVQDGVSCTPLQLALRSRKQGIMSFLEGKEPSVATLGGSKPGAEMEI

[37] = biological target: YES1 (human) (UniProt P07947)
Sequence of YES1 (human) (P07947 whole entry, looked up): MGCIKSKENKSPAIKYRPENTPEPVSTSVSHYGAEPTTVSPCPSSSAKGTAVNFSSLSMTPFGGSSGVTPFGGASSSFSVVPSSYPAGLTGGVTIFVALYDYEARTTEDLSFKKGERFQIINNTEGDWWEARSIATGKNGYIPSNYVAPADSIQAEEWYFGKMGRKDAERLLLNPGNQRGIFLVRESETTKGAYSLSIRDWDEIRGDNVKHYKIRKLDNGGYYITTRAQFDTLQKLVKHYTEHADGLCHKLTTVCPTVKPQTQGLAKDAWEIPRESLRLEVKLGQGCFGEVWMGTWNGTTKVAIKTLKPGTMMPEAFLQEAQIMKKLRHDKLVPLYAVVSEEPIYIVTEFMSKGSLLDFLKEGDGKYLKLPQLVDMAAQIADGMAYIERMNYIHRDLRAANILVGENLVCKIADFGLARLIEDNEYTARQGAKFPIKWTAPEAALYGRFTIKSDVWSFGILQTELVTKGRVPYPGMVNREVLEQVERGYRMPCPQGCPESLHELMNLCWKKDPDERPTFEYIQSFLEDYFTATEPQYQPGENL

[38] = biological target: EPHA8 (human) (UniProt P29322)
[39] = biological target: SLK (human) (UniProt Q9H2G2)
[40] = biological target: MAPK14 (human) (UniProt Q16539)

Sequence of MAP3K10 (human) (Q02779 whole entry, looked up): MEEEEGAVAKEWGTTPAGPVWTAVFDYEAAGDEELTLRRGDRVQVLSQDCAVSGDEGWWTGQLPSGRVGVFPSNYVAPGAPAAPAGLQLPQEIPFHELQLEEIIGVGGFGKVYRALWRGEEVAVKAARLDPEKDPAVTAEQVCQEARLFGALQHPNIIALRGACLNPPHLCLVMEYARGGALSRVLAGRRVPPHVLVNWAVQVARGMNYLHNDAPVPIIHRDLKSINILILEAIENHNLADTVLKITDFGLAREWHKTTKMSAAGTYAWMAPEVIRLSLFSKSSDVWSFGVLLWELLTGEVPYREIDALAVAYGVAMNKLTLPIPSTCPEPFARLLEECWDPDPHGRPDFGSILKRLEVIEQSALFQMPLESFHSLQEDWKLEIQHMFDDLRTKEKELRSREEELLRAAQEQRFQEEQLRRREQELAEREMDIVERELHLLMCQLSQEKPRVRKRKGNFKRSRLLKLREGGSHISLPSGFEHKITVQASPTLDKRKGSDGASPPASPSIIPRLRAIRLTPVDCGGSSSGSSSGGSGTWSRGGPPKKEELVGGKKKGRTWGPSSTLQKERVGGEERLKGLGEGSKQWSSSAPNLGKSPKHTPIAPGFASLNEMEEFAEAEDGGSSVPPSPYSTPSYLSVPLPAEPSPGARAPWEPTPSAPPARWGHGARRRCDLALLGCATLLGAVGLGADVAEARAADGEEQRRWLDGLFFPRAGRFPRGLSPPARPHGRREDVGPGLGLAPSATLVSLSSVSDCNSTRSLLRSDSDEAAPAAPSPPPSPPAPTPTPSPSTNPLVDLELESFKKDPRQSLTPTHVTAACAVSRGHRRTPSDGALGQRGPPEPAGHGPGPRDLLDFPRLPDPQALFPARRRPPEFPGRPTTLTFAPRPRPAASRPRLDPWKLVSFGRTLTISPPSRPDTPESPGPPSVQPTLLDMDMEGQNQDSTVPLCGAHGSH

SMILES | kinase still bound, per cent of control [1] | kinase still bound, per cent of control [2] | kinase still bound, per cent of control [3] | kinase still bound, per cent of control [4] | kinase still bound, per cent of control [5] | kinase still bound, per cent of control [6] | kinase still bound, per cent of control [7] | kinase still bound, per cent of control [8] | kinase still bound, per cent of control [9] | kinase still bound, per cent of control [10] | kinase still bound, per cent of control [11] | kinase still bound, per cent of control [12] | kinase still bound, per cent of control [13] | kinase still bound, per cent of control [14] | kinase still bound, per cent of control [15] | kinase still bound, per cent of control [16] | kinase still bound, per cent of control [17] | kinase still bound, per cent of control [18] | kinase still bound, per cent of control [19] | kinase still bound, per cent of control [20] | other results
O=C1Nc2ccc(I)cc2/C1=C/c1cc(Br)c(O)c(Br)c1 | 100% | 44% | 100% | 100% | 93% | 1.8% | 100% | 84% | 52% | 89% | 100% | 8.6% | 55% | 85% | 66% | 86% | 71% | 35% | 87% | 2% | kinase still bound, per cent of control [21]: 89%; kinase still bound, per cent of control [22]: 85%; kinase still bound, per cent of control [23]: 77%; kinase still bound, per cent of control [24]: 81%; kinase still bound, per cent of control [25]: 86%; kinase still bound, per cent of control [26]: 10%; kinase still bound, per cent of control [27]: 72%; kinase still bound, per cent of control [28]: 87%; kinase still bound, per cent of control [29]: 47%; kinase still bound, per cent of control [30]: 100%; kinase still bound, per cent of control [31]: 81%; kinase still bound, per cent of control [32]: 2.5%; kinase still bound, per cent of control [33]: 77%; kinase still bound, per cent of control [34]: 86%; kinase still bound, per cent of control [35]: 40%; kinase still bound, per cent of control [36]: 12%; kinase still bound, per cent of control [37]: 90%; kinase still bound, per cent of control [38]: 100%; kinase still bound, per cent of control [39]: 100%; kinase still bound, per cent of control [40]: 36%
Cc1ccc(C(=O)Nc2cccc(C(F)(F)F)c2)cc1Nc1cncc(C(N)=O)c1 | 100% | 100% | 100% | 100% | 100% | 0% | 100% | 100% | 100% | 100% | 100% | 100% | 32% | 100% | 21% | 100% | 100% | 100% | 100% | 100% | kinase still bound, per cent of control [21]: 100%; kinase still bound, per cent of control [22]: 100%; kinase still bound, per cent of control [23]: 100%; kinase still bound, per cent of control [24]: 100%; kinase still bound, per cent of control [25]: 100%; kinase still bound, per cent of control [26]: 100%; kinase still bound, per cent of control [27]: 100%; kinase still bound, per cent of control [28]: 100%; kinase still bound, per cent of control [29]: 100%; kinase still bound, per cent of control [30]: 100%; kinase still bound, per cent of control [31]: 100%; kinase still bound, per cent of control [32]: 100%; kinase still bound, per cent of control [33]: 27%; kinase still bound, per cent of control [34]: 100%; kinase still bound, per cent of control [35]: 100%; kinase still bound, per cent of control [36]: 100%; kinase still bound, per cent of control [37]: 100%; kinase still bound, per cent of control [38]: 0.35%; kinase still bound, per cent of control [39]: 100%; kinase still bound, per cent of control [40]: 5%
